According to US20150299188A1, “HETEROCYCLIC COMPOUND” (priority 2012, published 2015):

test system: FLAP (5-lipoxygenase activating protein); test: In vitro binding test: displacement of [3H]-7-chloro-3-(5-((3-fluoropyridin-2-yl)methoxy)-2-methylphenyl)-3,4-dihydroquinazolin-2(1H)-one from Sf9 microsome fractions; design: species or system human and mouse; conditions: Sf9 microsome fractions expressing FLAP; 100% = radioligand binding with 10 μM sodium 3-(3-(tert-butylsulfanyl)-1-(4-chlorobenzyl)-5-isopropyl-1H-indol-2-yl)-2,2-dimethylpropanoate, 0% = DMSO; test compound concentration not given
Method in brief: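 Sf9 microsomes expressing human or mouse FLAP (2 μg/mL) preincubated with compound 10 min at room temperature, then 120 nM tritiated quinazolinone ligand added for 60 min; buffer 100 mM Tris-HCl pH 7.5 with NaCl, EDTA, DTT, glycerol, Tween20. Bound ligand filtered and counted by scintillation; 10 μM indole propanoate defines 100% inhibition, DMSO 0%.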

Compound | inhibitory rate (%)
COc1ncc(C(F)(F)F)c2c1NC(=O)N(c1cc3c(cc1C)CCC(c1ncccc1F)O3)C2 (centres unmarked) [Example 107, 3-(2-(3-fluoropyridin-2-yl)-6-methyl-3,4-dihydro-2H-chromen-7-yl)-8-methoxy-5-(trifluoromethyl)-3,4-dihydropyrido[3,4-d]pyrimidin-2(1H)-one] | 93%
COc1ncc(C(F)(F)F)c2c1NC(=O)N(c1cc3c(cc1Cl)CCC(c1ncccc1F)O3)C2 (centres unmarked) [Example 108, 3-(6-chloro-2-(3-fluoropyridin-2-yl)-3,4-dihydro-2H-chromen-7-yl)-8-methoxy-5-(trifluoromethyl)-3,4-dihydropyrido[3,4-d]pyrimidin-2(1H)-one] | 104%
O=C(c1cc2c(c(C3CC3)n1)CN(c1cc3c(cc1Cl)CCC(c1ncccc1F)O3)C(=O)N2)N1CC(O)C1 (centres unmarked) [Example 112, 3-(6-chloro-2-(3-fluoropyridin-2-yl)-3,4-dihydro-2H-chromen-7-yl)-5-cyclopropyl-7-((3-hydroxyazetidin-1-yl)carbonyl)-3,4-dihydropyrido[4,3-d]pyrimidin-2(1H)-one] | 103%
CC(C)(O)CNC(=O)c1cc2c(c(C3CC3)n1)CN(c1cc3c(cc1Cl)CCC(c1ncccc1F)O3)C(=O)N2 (centres unmarked) [Example 114, 3-(6-chloro-2-(3-fluoropyridin-2-yl)-3,4-dihydro-2H-chromen-7-yl)-5-cyclopropyl-N-(2-hydroxy-2-methylpropyl)-2-oxo-1,2,3,4-tetrahydropyrido[4,3-d]pyrimidine-7-carboxamide] | 106%
O=C1Nc2cc(-c3cn[nH]c3)nc(C3CC3)c2CN1c1cc2c(cc1Cl)CCC(c1ncccc1F)O2 (centres unmarked) [Example 116, 3-(6-chloro-2-(3-fluoropyridin-2-yl)-3,4-dihydro-2H-chromen-7-yl)-5-cyclopropyl-7-(1H-pyrazol-4-yl)-3,4-dihydropyrido[4,3-d]pyrimidin-2(1H)-one] | 102%
Cc1n[nH]c(-c2cc3c(c(C4CC4)n2)CN(c2cc4c(cc2Cl)CCC(c2ncccc2F)O4)C(=O)N3)n1 (centres unmarked) [Example 119, 3-(6-chloro-2-(3-fluoropyridin-2-yl)-3,4-dihydro-2H-chromen-7-yl)-5-cyclopropyl-7-(3-methyl-1H-1,2,4-triazol-5-yl)-3,4-dihydropyrido[4,3-d]pyrimidin-2(1H)-one] | 107%
O=C1COCCN1c1cc2c(c(C3CC3)n1)CN(c1cc3c(cc1Cl)CCC(c1ncccc1F)O3)C(=O)N2 (centres unmarked) [Example 120, 3-(6-chloro-2-(3-fluoropyridin-2-yl)-3,4-dihydro-2H-chromen-7-yl)-5-cyclopropyl-7-(3-oxomorpholin-4-yl)-3,4-dihydropyrido[4,3-d]pyrimidin-2(1H)-one] | 100%
O=C1Nc2cc(-c3nnco3)nc(C3CC3)c2CN1c1cc2c(cc1Cl)CCC(c1ncccc1F)O2 (centres unmarked) [Example 124, 3-(6-chloro-2-(3-fluoropyridin-2-yl)-3,4-dihydro-2H-chromen-7-yl)-5-cyclopropyl-7-(1,3,4-oxadiazol-2-yl)-3,4-dihydropyrido[4,3-d]pyrimidin-2(1H)-one] | 104%
Cc1cc2c(cc1N1Cc3c(cc(OC(F)F)nc3C3CC3)NC1=O)OC(c1ncccc1F)CC2 (centres unmarked) [Example 128, 5-cyclopropyl-7-(difluoromethoxy)-3-(2-(3-fluoropyridin-2-yl)-6-methyl-3,4-dihydro-2H-chromen-7-yl)-3,4-dihydropyrido[4,3-d]pyrimidin-2 (1H)-one] | 111%
Cc1cc2c(cc1N1Cc3c(Cl)cnc(C)c3NC1=O)OC(c1ncccc1F)CC2 (centres unmarked) [Example 129, 5-chloro-3-(2-(3-fluoropyridin-2-yl)-6-methyl-3,4-dihydro-2H-chromen-7-yl)-8-methyl-3,4-dihydropyrido[3,4-d]pyrimidin-2(1H)-one] | 114%
O=C1Nc2c(N3CCSCC3)ncc(Cl)c2CN1c1cc2c(cc1Cl)CCC(c1ncccc1F)O2 (centres unmarked) [Example 130, 5-chloro-3-(6-chloro-2-(3-fluoropyridin-2-yl)-3,4-dihydro-2H-chromen-7-yl)-8-(thiomorpholin-4-yl)-3,4-dihydropyrido[3,4-d]pyrimidin-2(1H)-one] | 101%
Cc1cc2c(cc1N1Cc3c(cc(-n4cccn4)nc3C3CC3)NC1=O)OC(c1ncccc1F)CC2 (centres unmarked) [Example 132, 5-cyclopropyl-3-(2-(3-fluoropyridin-2-yl)-6-methyl-3,4-dihydro-2H-chromen-7-yl)-7-(1H-pyrazol-1-yl)-3,4-dihydropyrido[4,3-d]pyrimidin-2(1H)-one] | 104%

Next, values leading:

inhibitory rate (%) | Compound
94% | O=C1Nc2cc(N3CCCS3(=O)=O)nc(C3CC3)c2CN1c1cc2c(cc1Cl)CCC(c1ncccc1F)O2 (centres unmarked) [Example 106, 3-(6-chloro-2-(3-fluoropyridin-2-yl)-3,4-dihydro-2H-chromen-7-yl)-5-cyclopropyl-7-(1,1-dioxido-1,2-thiazolidin-2-yl)-3,4-dihydropyrido[4,3-d]pyrimidin-2(1H)-one]
106% | O=C1Nc2c(N3CCC(O)CC3)ncc(Cl)c2CN1c1cc2c(cc1Cl)CCC(c1ncccc1F)O2 (centres unmarked) [Example 109, 5-chloro-3-(6-chloro-2-(3-fluoropyridin-2-yl)-3,4-dihydro-2H-chromen-7-yl)-8-(4-hydroxypiperidin-1-yl)-3,4-dihydropyrido[3,4-d]pyrimidin-2(1H)-one]
99% | COCCOc1cnc(C(F)(F)F)c2c1NC(=O)N(c1cc3c(cc1C)CCC(c1ncccc1F)O3)C2 (centres unmarked) [Example 110, 3-(2-(3-fluoropyridin-2-yl)-6-methyl-3,4-dihydro-2H-chromen-7-yl)-8-(2-methoxyethoxy)-5-(trifluoromethyl)-3,4-dihydropyrido[4,3-d]pyrimidin-2(1H)-one]
114% | O=C1OCCN1c1cc2c(c(C3CC3)n1)CN(c1cc3c(cc1Cl)CCC(c1ncccc1F)O3)C(=O)N2 (centres unmarked) [Example 113, 3-(6-chloro-2-(3-fluoropyridin-2-yl)-3,4-dihydro-2H-chromen-7-yl)-5-cyclopropyl-7-(2-oxo-1,3-oxazolidin-3-yl)-3,4-dihydropyrido[4,3-d]pyrimidin-2(1H)-one]
106% | O=C1Nc2cc(-c3ccn[nH]3)nc(C3CC3)c2CN1c1cc2c(cc1Cl)CCC(c1ncccc1F)O2 (centres unmarked) [Example 115, 3-(6-chloro-2-(3-fluoropyridin-2-yl)-3,4-dihydro-2H-chromen-7-yl)-5-cyclopropyl-7-(1H-pyrazol-5-yl)-3,4-dihydropyrido[4,3-d]pyrimidin-2(1H)-one]
106% | O=C1Nc2cc(-c3n[nH]c(=O)o3)nc(C3CC3)c2CN1c1cc2c(cc1Cl)CCC(c1ncccc1F)O2 (centres unmarked) [Example 117, 3-(6-chloro-2-(3-fluoropyridin-2-yl)-3,4-dihydro-2H-chromen-7-yl)-5-cyclopropyl-7-(5-oxo-4,5-dihydro-1,3,4-oxadiazol-2-yl)-3,4-dihydropyrido[4,3-d]pyrimidin-2(1H)-one]
104% | O=C1Nc2cc(-c3noc(=S)[nH]3)nc(C3CC3)c2CN1c1cc2c(cc1Cl)CCC(c1ncccc1F)O2 (centres unmarked) [Example 118, 3-(6-chloro-2-(3-fluoropyridin-2-yl)-3,4-dihydro-2H-chromen-7-yl)-5-cyclopropyl-7-(5-thioxo-4,5-dihydro-1,2,4-oxadiazol-3-yl)-3,4-dihydropyrido[4,3-d]pyrimidin-2(1H)-one]
111% | Cc1noc(-c2cc3c(c(C4CC4)n2)CN(c2cc4c(cc2Cl)CCC(c2ncccc2F)O4)C(=O)N3)n1 (centres unmarked) [Example 121, 3-(6-chloro-2-(3-fluoropyridin-2-yl)-3,4-dihydro-2H-chromen-7-yl)-5-cyclopropyl-7-(3-methyl-1,2,4-oxadiazol-5-yl)-3,4-dihydropyrido[4,3-d]pyrimidin-2(1H)-one]
106% | COc1cc2c(c(C3CC3)n1)CN(c1cc3c(cc1C)CCC(c1ncccc1F)O3)C(=O)N2 (centres unmarked) [Example 122, 5-cyclopropyl-3-(2-(3-fluoropyridin-2-yl)-6-methyl-3,4-dihydro-2H-chromen-7-yl)-7-methoxy-3,4-dihydropyrido[4,3-d]pyrimidin-2(1H)-one]
98% | Cc1cc2c(cc1N1Cc3c(cc(-n4cc(CO)cn4)nc3C3CC3)NC1=O)OC(c1ncccc1F)CC2 (centres unmarked) [Example 123, 5-cyclopropyl-3-(2-(3-fluoropyridin-2-yl)-6-methyl-3,4-dihydro-2H-chromen-7-yl)-7-(4-(hydroxymethyl)-1H-pyrazol-1-yl)-3,4-dihydropyrido[4,3-d]pyrimidin-2(1H)-one]
95% | O=C1CNCCN1c1cc2c(c(C3CC3)n1)CN(c1cc3c(cc1Cl)CCC(c1ncccc1F)O3)C(=O)N2 (centres unmarked) [Example 125, 3-(6-chloro-2-(3-fluoropyridin-2-yl)-3,4-dihydro-2H-chromen-7-yl)-5-cyclopropyl-7-(2-oxopiperazin-1-yl)-3,4-dihydropyrido[4,3-d]pyrimidin-2(1H)-one]
113% | Cc1noc(C)c1-c1ncc(Cl)c2c1NC(=O)N(c1cc3c(cc1Cl)CCC(c1ncccc1F)O3)C2 (centres unmarked) [Example 126, 5-chloro-3-(6-chloro-2-(3-fluoropyridin-2-yl)-3,4-dihydro-2H-chromen-7-yl)-8-(3,5-dimethyl-1,2-oxazol-4-yl)-3,4-dihydropyrido[3,4-d]pyrimidin-2(1H)-one]
98% | O=C1Nc2c(C3=CCOCC3)ncc(Cl)c2CN1c1cc2c(cc1Cl)CCC(c1ncccc1F)O2 (centres unmarked) [Example 127, 5-chloro-3-(6-chloro-2-(3-fluoropyridin-2-yl)-3,4-dihydro-2H-chromen-7-yl)-8-(3,6-dihydro-2H-pyran-4-yl)-3,4-dihydropyrido[3,4-d]pyrimidin-2(1H)-one]
101% | O=C1NCCN1c1cc2c(c(C3CC3)n1)CN(c1cc3c(cc1Cl)CCC(c1ncccc1F)O3)C(=O)N2 (centres unmarked) [Example 131, 3-(6-chloro-2-(3-fluoropyridin-2-yl)-3,4-dihydro-2H-chromen-7-yl)-5-cyclopropyl-7-(2-oxoimidazolidin-1-yl)-3,4-dihydropyrido[4,3-d]pyrimidin-2(1H)-one]
